We go through four compounds from patent US10633407B2, “14-membered ketolides and methods of their preparation and use” (President and Fellows of Harvard College, priority 2014, dated 2020).

The conditions of series [1]: ester bond, chlorobenzene, 1.0 mM, 150.0 °C, 16.0 h.
The subject of series [2] is S. pyogenes Macrolide-resistant. Description: CLSI broth dilution MIC determination. The format is cell-based. As to conditions: Streptococcus pyogenes, S. pyogenes Macrolide-resistant (MP-625 UNT-014); read-out: MIC.
For series [3], the system named is A. baumannii imipenem-resistant. Description: CLSI broth dilution MIC determination. The format is cell-based. The conditions noted are these: Acinetobacter baumannii, read-out: MIC.
The test system of series [4] is H. influenzae Erythro >4, Azithro 1. Description: CLSI broth dilution MIC determination. The format is cell-based. As to conditions: Haemophilus influenzae; read-out: MIC. The source says:
MIC data was collected for the novel macrolides that this platform has produced against over 21 unique strains of B. subtilis, E. coli, S. aureus, S. pneumoniae, and H. influenzae, including several multidrug-resistant strains, with a special focus on macrolide resistant mechanisms (vide supra). […] CLSI standard procedures for broth dilution MIC determination were used. […] These genotypes can be constitutive or inducible.

Series [5] has as its system E. faecalis Vancomycin-resistant. Kind of series: CLSI broth dilution MIC determination. Type of series: cell-based. As to conditions: Enterococcus faecalis, E. faecalis Vancomycin-resistant (UNT-039); read-out: MIC. In general terms: In broth dilution the organism is exposed to a series of concentrations in liquid medium.
Another series has as its system S. pyogenes ATCC 19615. Description: CLSI broth dilution MIC determination. The format is cell-based. The conditions noted are these: Streptococcus pyogenes, ATCC19615, S. pyogenes ATCC 19615 (MP-19); read-out: MIC.
For another series, the system named is K. pneumoniae KPC-2. Description: CLSI broth dilution MIC determination. Type of series: cell-based. The conditions noted are these: Klebsiella pneumoniae, KPC2, read-out: MIC.
The next series relates to P. aeruginosa ATCC 27853. Kind of series: CLSI broth dilution MIC determination. Type of series: cell-based. As to conditions: Pseudomonas aeruginosa, ATCC27853; P. aeruginosa ATCC 27853 (MP-3); read-out: MIC.
Series [6] relates to S. pneumoniae erm B + mef A genotype. Description: CLSI broth dilution MIC determination. The format is cell-based. The conditions noted are these: Streptococcus pneumoniae. The method in brief:
(§1)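 Broth dilution MICs determined by CLSI standard procedures across a strain panel that includes multidrug- and macrolide-resistant strains. Resistance genotypes may be constitutive or inducible.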

The test system of a further series is S. aureus MRSA: USA100. Kind of series: CLSI broth dilution MIC determination. As to conditions: Staphylococcus aureus; S. aureus MRSA: USA100 (MP-618 UNT-096); read-out: MIC. The format is cell-based. The method in brief:
as §1

For the next series, the system named is E. coli TEM-1. Description: CLSI broth dilution MIC determination. The conditions noted are these: Escherichia coli, TEM1. Type of series: cell-based. The method in brief:
as §1

Series [7] deals with S. pneumoniae mef A genotype (second strain so labelled). Description: CLSI broth dilution MIC determination. Type of series: cell-based. The conditions noted are these: Streptococcus pneumoniae, second strain (MP-627 UNT-039), read-out: MIC. The gist of the method: as §1
For a further series, the system named is S. aureus MRSA: USA300. Description: CLSI broth dilution MIC determination. The format is cell-based. The conditions noted are these: Staphylococcus aureus; S. aureus MRSA: USA300 (MP-549, msr(a)); read-out: MIC. The gist of the method:
as §1

A further series concerns K. pneumoniae TEM-10. Kind of series: CLSI broth dilution MIC determination. Type of series: cell-based. As to conditions: Klebsiella pneumoniae, TEM10, read-out: MIC.
For the next series, the system named is S. aureus ATCC 29213. Description: CLSI broth dilution MIC determination. The conditions noted are these: Staphylococcus aureus, ATCC29213; S. aureus ATCC 29213 (MP-12); read-out: MIC. The format is cell-based. The gist of the method: as §1
For a further series, the system named is E. coli CTX-M-14. Kind of series: CLSI broth dilution MIC determination. Type of series: cell-based. The conditions noted are these: Escherichia coli, CTXM14, read-out: MIC. The method in brief:
as §1

In the next series the test system is H. influenzae ATCC49247. Description: CLSI broth dilution MIC determination. As to conditions: Haemophilus influenzae, read-out: MIC. Type of series: cell-based. The method in brief:
as §1

Series [8] relates to S. pneumoniae erm B + tet(M,O) genotype. Kind of series: CLSI broth dilution MIC determination. The format is cell-based. The conditions noted are these: Streptococcus pneumoniae. The method in brief:
as §1

Another series deals with S. aureus USA600, GISA. Description: CLSI broth dilution MIC determination. The format is cell-based. As to conditions: Staphylococcus aureus; S. aureus USA600, GISA (MP-619 UNT-120); read-out: MIC. The method in brief: as §1
Another series concerns S. aureus erm A genotype. Kind of series: CLSI broth dilution MIC determination. Type of series: cell-based. As to conditions: Staphylococcus aureus; S. aureus erm A genotype (MP-620 UNT-146); read-out: MIC. The gist of the method: as §1
Series [9] has as its system S. pneumoniae mef A genotype (first strain so labelled). Description: CLSI broth dilution MIC determination. The format is cell-based. As to conditions: Streptococcus pneumoniae, first strain (MP-626 UNT-038). The method in brief: as §1
Another series concerns E. coli ATCC 25922. Kind of series: CLSI broth dilution MIC determination. Type of series: cell-based. The conditions noted are these: Escherichia coli, ATCC25922, E. coli ATCC 25922 (MP-4); read-out: MIC. The method in brief:
as §1

A further series deals with S. pneumoniae ATCC 49619. Kind of series: CLSI broth dilution MIC determination. The format is cell-based. As to conditions: Streptococcus pneumoniae, ATCC49619, S. pneumoniae ATCC 49619 (MP-21); read-out: MIC. The gist of the method:
as §1

A further series deals with E. coli NDM-1. Kind of series: CLSI broth dilution MIC determination. The format is cell-based. The conditions noted are these: Escherichia coli, NDM1, read-out: MIC. The gist of the method: as §1
The test system of the next series is E. faecalis ATCC 29212. Kind of series: CLSI broth dilution MIC determination. The format is cell-based. As to conditions: Enterococcus faecalis, ATCC29212, E. faecalis ATCC 29212 (MP-24); read-out: MIC.
The test system of another series is A. baumannii IMP-4. Kind of series: CLSI broth dilution MIC determination. The format is cell-based. The conditions noted are these: Acinetobacter baumannii, IMP4, read-out: MIC.
The next series relates to K. pneumoniae ATCC 10031. Description: CLSI broth dilution MIC determination. Type of series: cell-based. The conditions noted are these: Klebsiella pneumoniae, ATCC10031, K. pneumoniae ATCC 10031 (MP-14); read-out: MIC.
The test system of series [10] is P. aeruginosa HPA101-1477. Description: CLSI broth dilution MIC determination. The format is cell-based. The conditions noted are these: Pseudomonas aeruginosa, HPA1011477, read-out: MIC.
Series [11] relates to A. baumannii chromosomal class C. Description: CLSI broth dilution MIC determination. The format is cell-based. The conditions noted are these: Acinetobacter baumannii, read-out: MIC.
For another series, the system named is K. pneumoniae SHV-12. Description: CLSI broth dilution MIC determination. Type of series: cell-based. The conditions noted are these: Klebsiella pneumoniae, SHV12, read-out: MIC.
Another series relates to A. baumannii ATCC 19606. Kind of series: CLSI broth dilution MIC determination. Type of series: cell-based. The conditions noted are these: Acinetobacter baumannii, ATCC19606; A. baumannii ATCC 19606 (MP-15); read-out: MIC.

Values after ≈ are worked out from the molar mass of the structure shown. Where two headings read alike, the source gives them in different places. A value given as a limit tells only on which side of the number the result lay.

In series [1] (from C=C(C(=O)[C@H](C)C[C@@](C)(OC)[C@H](O[C@@H]1O[C@H](C)C[C@H](N(C)C)[C@H]1OC(=O)OC)[C@@H](C)C1=C(C)C(=O)OC(C)(C)O1)[C@H]1N(CCCCN=[N+]=[N-])C(=O)O[C@]1(C)[C@H](O)CC), `C=C1C(=O)[C@H](C)C[C@@](C)(OC)[C@H](O[C@@H]2O[C@H](C)C[C@H](N(C)C)[C@H]2OC(=O)OC)[C@@H](C)C(=O)C(C)C(=O)O[C@H](CC)[C@@]2(C)OC(=O)N(CCCCN=[N+]=[N-])[C@H]12` (some centres unmarked) registered a ring closure, yield of all isomers of 23%.
For `CC[C@H]1OC(=O)[C@@H](C)C(=O)[C@H](C)[C@@H](O[C@@H]2OC(C)CC(N(C)C)C2O)[C@](C)(OC)C[C@@H](C)C(=O)[C@H](C)[C@H]2N(C/C=C/Cn3cc(-c4cccc(N)c4)nn3)C(=O)O[C@]12C` (some centres unmarked) [FSM-100432], the MIC in series [2] is 0.0625 µg/mL (≈ 0.0758 µM); in [3], more than 32 µg/mL; in [4] it was 8 µg/mL (≈ 9.7 µM); in series [5], more than 32 µg/mL; in the series on S. pyogenes ATCC 19615, less than 0.0312 µg/mL; with K. pneumoniae KPC-2, more than 32 µg/mL. Further, the MIC with P. aeruginosa ATCC 27853 is more than 32 µg/mL; in [6] it was 2 µg/mL (≈ 2.42 µM); in the series with S. aureus MRSA: USA100, more than 32 µg/mL; against E. coli TEM-1, more than 32 µg/mL; in [7], 0.5 µg/mL (≈ 0.606 µM); in the series on S. aureus MRSA: USA300, more than 32 µg/mL. Also, the MIC in the series with K. pneumoniae TEM-10 was more than 32 µg/mL; in the series on S. aureus ATCC 29213, 1 µg/mL (≈ 1.21 µM); with E. coli CTX-M-14 it was more than 32 µg/mL; in the series on H. influenzae ATCC49247 it was 8 µg/mL (≈ 9.7 µM); in [8], less than 0.0312 µg/mL; in the series with S. aureus USA600, GISA it was more than 32 µg/mL. The MIC with S. aureus erm A genotype was more than 32 µg/mL; in series [9] it was 0.125 µg/mL (≈ 0.152 µM); in the series with E. coli ATCC 25922 it was more than 32 µg/mL; with S. pneumoniae ATCC 49619, less than 0.0312 µg/mL; with E. coli NDM-1, more than 32 µg/mL; in the series on E. faecalis ATCC 29212, 0.125 µg/mL (≈ 0.152 µM). The MIC in the series with A. baumannii IMP-4 was more than 32 µg/mL; in the series on K. pneumoniae ATCC 10031 it was 32 µg/mL (≈ 38.8 µM); in series [10] it was more than 32 µg/mL; in series [11], more than 32 µg/mL; in the series with K. pneumoniae SHV-12 it was more than 32 µg/mL; with A. baumannii ATCC 19606, more than 32 µg/mL.
`CC[C@H]1OC(=O)[C@H](C)C(=O)[C@H](C)[C@@H](O[C@@H]2O[C@H](C)C[C@H](N(C)C)[C@H]2OC(=O)OC)[C@](C)(OC)C[C@@H](C)C(=O)[C@H](C)[C@H]2N(CCCCN=[N+]=[N-])C(=O)O[C@]12C`: in series [1] (from CC[C@@H](O)[C@@]1(C)OC(=O)N(CCCCN=[N+]=[N-])[C@@H]1[C@@H](C)C(=O)[C@H](C)C[C@@](C)(OC)[C@H](O[C@@H]1O[C@H](C)C[C@H](N(C)C)[C@H]1OC(=O)OC)[C@@H](C)C1=C(C)C(=O)OC(C)(C)O1, none (thermal, dioxinone to acylketene)), the ring closure, yield of all isomers came out at 52%.
As to `C=C1C(=O)[C@H](C)C[C@@](C)(OC)[C@H](O[C@@H]2OC(C)CC(N(C)C)C2O)[C@@H](C)C(=O)[C@@H](C)C(=O)O[C@H](CC)[C@@]2(C)OC(=O)N(CCCCn3cc(-c4cccc(N)c4)nn3)[C@H]12` (some centres unmarked) [FSM-21828], the MIC in series [2] is 0.5 µg/mL (≈ 0.606 µM); in series [3], more than 32 µg/mL; in [4], 16 µg/mL (≈ 19.4 µM); in series [5], more than 32 µg/mL; in the series with S. pyogenes ATCC 19615, not above 0.0312 µg/mL; with K. pneumoniae KPC-2, more than 32 µg/mL. Further, the MIC with P. aeruginosa ATCC 27853 is more than 32 µg/mL; in [6], 32 µg/mL (≈ 38.8 µM); in the series on S. aureus MRSA: USA100, more than 32 µg/mL; in the series on E. coli TEM-1 it was more than 32 µg/mL; in series [7], 0.5 µg/mL (≈ 0.606 µM); with S. aureus MRSA: USA300, more than 32 µg/mL. Also, the MIC in the series with K. pneumoniae TEM-10 was more than 32 µg/mL; in the series with S. aureus ATCC 29213, 4 µg/mL (≈ 4.85 µM); with E. coli CTX-M-14 it was more than 32 µg/mL; with H. influenzae ATCC49247, 16 µg/mL (≈ 19.4 µM); in series [8] it was not above 0.0312 µg/mL; with S. aureus USA600, GISA, more than 32 µg/mL. For the same compound, the MIC was more than 32 µg/mL with S. aureus erm A genotype; 0.0625 µg/mL (≈ 0.0758 µM) in [9]; more than 32 µg/mL in the series on E. coli ATCC 25922; not above 0.0312 µg/mL in the series on S. pneumoniae ATCC 49619; more than 32 µg/mL in the series on E. coli NDM-1; 1 µg/mL (≈ 1.21 µM) with E. faecalis ATCC 29212. Further, the MIC in the series on A. baumannii IMP-4 was more than 32 µg/mL; in the series with K. pneumoniae ATCC 10031, 16 µg/mL (≈ 19.4 µM); in series [10] it was more than 32 µg/mL; in series [11] it was more than 32 µg/mL; with K. pneumoniae SHV-12 it was more than 32 µg/mL; in the series with A. baumannii ATCC 19606, more than 32 µg/mL.
